According to the supplement of paper PMC11061612:

Tests used:
Experiment in all cases: combination Emax (second highest fraction inhibited in the dose matrix, 72 h); higher = more inhibition; extreme values may be limits of the assay
RH-1 (Ewing's Sarcoma) = system: RH-1 (Ewing's Sarcoma)
Outline: (§1)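 Bliss excess equals the observed combination effect minus the expected value EA + EB − EA·EB, where EA and EB are the effects of each agent alone. Combination Emax is the second-highest inhibition within the matrix. Inhibition was scaled from CellTiter-Glo 2.0 luminescence, with 0 set by vehicle wells and 1 by blank wells, after 72 hours of two-drug dosing of cells plated in 1536-well plates.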

[1] = system: NCI-H1694 (Small Cell Lung Carcinoma)
Outline: as §1

[2] = system: HCC2157 (Breast Carcinoma)
Outline: as §1

[3] = system: TGBC24TKB (Biliary Tract Carcinoma)
Outline: as §1

[4] = system: KARPAS-620 (Plasma Cell Myeloma)
Outline: as §1

[5] = system: EM-2 (Chronic Myelogenous Leukemia)
Outline: as §1

[6] = system: C3A (Hepatocellular Carcinoma)
Outline: as §1

[7] = system: CFPAC-1 (Pancreatic Carcinoma)
Outline: as §1

[8] = system: KATOIII (Gastric Carcinoma)
Outline: as §1

IGR-1 (Melanoma) = system: IGR-1 (Melanoma)
Outline: as §1

[9] = system: 697 (B-Lymphoblastic Leukemia)
Outline: as §1

[10] = system: JiyoyeP-2003 (Burkitt's Lymphoma)
Outline: as §1

J82 (Bladder Carcinoma) = system: J82 (Bladder Carcinoma)
Outline: as §1

[11] = system: U-266 (Plasma Cell Myeloma)
Outline: as §1

CAL-78 (Chondrosarcoma) = system: CAL-78 (Chondrosarcoma)
Outline: as §1

[12] = system: SW756 (Cervical Carcinoma)
Outline: as §1

SK-N-FI (Neuroblastoma) = system: SK-N-FI (Neuroblastoma)
Outline: as §1

SN12C (Kidney Carcinoma) = system: SN12C (Kidney Carcinoma)
Outline: as §1

[13] = system: IHH-4 (Thyroid Gland Carcinoma)
Outline: as §1

[14] = system: SNU-C5 (Colorectal Carcinoma)
Outline: as §1

| Compound | combination Emax (RH-1 (Ewing's Sarcoma)) | combination Emax [1] | combination Emax [2] | combination Emax [3] | combination Emax [4] | combination Emax [5] | combination Emax [6] | combination Emax [7] | combination Emax [8] | combination Emax (IGR-1 (Melanoma)) | combination Emax [9] | combination Emax [10] | combination Emax (J82 (Bladder Carcinoma)) | combination Emax [11] | combination Emax (CAL-78 (Chondrosarcoma)) | combination Emax [12] | combination Emax (SK-N-FI (Neuroblastoma)) | combination Emax (SN12C (Kidney Carcinoma)) | combination Emax [13] | combination Emax [14] |
| --- | --- | --- | --- | --- | --- | --- | --- | --- | --- | --- | --- | --- | --- | --- | --- | --- | --- | --- | --- | --- |
| CCc1c2c(nc3ccc(O)cc13)-c1cc3c(c(=O)n1C2)COC(=O)[C@]3(O)CC [SN-38] + CN(C)CCCOc1ccc(-c2ccc3ncc4c(c3c2)n(C2CCOCC2)c(=O)n4C)cn1 [AZD0156] (first compound max 0.3 µM, 7x7, partner max 1 µM) | 1 | 0.968 | 0.969 | 0.533 | 0.437 | 0.985 | 0.557 | 0.789 | 0.16 | 0.497 | 1 | 0.975 | 0.784 | 0.482 | 0.587 | 0.79 | 0.669 | 0.738 | 1 | 0.757 |
| COc1nnc2ccc(N3CCC(c4ccc(OCCN5CCN(C)C(=O)[C@H]5C)cc4)CC3)nn12 [AZD5153] + C[C@@H]1COCCN1C2=NC(=NC(=C2)C3(CC3)[S@](=N)(=O)C)C4=C5C=CNC5=NC=C4 [AZD6738] (first compound max 1 µM, 7x7, partner max 10 µM) | 0.957 | 0.921 | 1 | 0.855 | 0.835 | 0.998 | 0.741 | 0.574 | 0.553 | 0.728 | 1 | 0.95 | 0.604 | 0.412 | 0.515 | 0.447 | 0.783 | 0.204 | 0.772 | 0.816 |
| C=CCn1c(=O)c2cnc(Nc3ccc(N4CCN(C)CC4)cc3)nc2n1-c1cccc(C(C)(C)O)n1 [AZD1775] + O=C(c1cc(Cc2n[nH]c(=O)c3ccccc23)ccc1F)N1CCN(C(=O)C2CC2)CC1 [Olaparib] (first compound max 1 µM, partner max 10 µM) | 1 | 0.404 | 0.892 | 0.687 | 0.489 | 0.938 | 0.55 | 0.476 | 0.198 | 0.296 | 1 | 0.915 | 0.195 | 0.763 | 0.446 | 0.35 | 0.715 | 0.335 | 0.695 | 0.567 |
| CC1(C)CCC(CN2CCN(c3ccc(C(=O)NS(=O)(=O)c4ccc(NCC5CCOCC5)c([N+](=O)[O-])c4)c(Oc4cnc5[nH]ccc5c4)c3)CC2)=C(c2ccc(Cl)cc2)C1 [Venetoclax] + CCN(CCO)CCCOc1ccc2c(Nc3cc(CC(=O)Nc4cccc(F)c4)[nH]n3)ncnc2c1 [AZD2811] (first compound max 1 µM, 7x7, partner max 1 µM) | 0.951 | 0.485 | 0.762 | 0.525 | 1 | 0.864 | 0.228 | 0.259 | 0.17 | 0.349 | 1 | 0.382 | 0.177 | 0.614 | 0.328 | 0.158 | 0.198 | 0.187 | 0.389 | 0.19 |
| NC1(C(=O)N[C@@H](CCO)c2ccc(Cl)cc2)CCN(c2ncnc3[nH]ccc23)CC1 [Capivasertib] + CC(C)n1c(=O)n(C)c2cnc3cc(F)c(-c4ccc(OCCCN5CCCCC5)nc4)cc3c21 [AZD1390] (first compound max 10 µM, 7x7, partner max 0.3 µM) | 0.333 | 0.223 | 0.999 | 0.25 | 0.775 | 0.426 | 0.255 | 0.235 | 0.345 | 0.334 | 0.59 | 0.685 | 0.392 | 0.139 | 0.414 | 0.31 | 0.361 | 0.205 | 0.203 | 0.416 |
| C[C@@H](c1ccc2nccn2c1)n1nnc2ncc(-c3cnn(C)c3)nc21 [Savolitinib] + CC1(C)CCC(CN2CCN(c3ccc(C(=O)NS(=O)(=O)c4ccc(NCC5CCOCC5)c([N+](=O)[O-])c4)c(Oc4cnc5[nH]ccc5c4)c3)CC2)=C(c2ccc(Cl)cc2)C1 [Venetoclax] (first compound max 1 µM, 7x7, partner max 1 µM) | 0.0824 | 0.102 | 0.186 | 0.215 | 0.776 | 0.132 | 0.148 | 0.0889 | 0.337 | 0.114 | 1 | 0.162 | 0.145 | 0.259 | 0.187 | 0.1 | 0.192 | 0.219 | 0.0656 | 0.183 |
| Cn1cnc2c(F)c(Nc3ccc(Br)cc3Cl)c(C(=O)NOCCO)cc21 [Selumetinib] + CCN(CCO)CCCOc1ccc2c(Nc3cc(CC(=O)Nc4cccc(F)c4)[nH]n3)ncnc2c1 [AZD2811] (first compound max 10 µM, 7x7, partner max 1 µM) | 0.935 | 0.385 | 0.628 | 0.551 | 0.87 | 0.88 | 0.494 | 0.292 | 0.429 | 0.393 | 1 | 0.235 | 0.153 | 0.594 | 0.267 | 0.294 | 0.455 | 0.237 | 0.586 | 0.436 |
| CN(CCO)CC[C@H](CSc1ccccc1)Nc1ccc(S(=O)(=O)NC(=O)c2ccc(N3CCC([C@@H](O)c4ccccc4-c4ccc(Cl)cc4)CC3)cc2)cc1S(=O)(=O)C(F)(F)F [AZD4320] + C[C@@H]1COCCN1C2=NC(=NC(=C2)C3(CC3)[S@](=N)(=O)C)C4=C5C=CNC5=NC=C4 [AZD6738] (first compound max 1 µM, 7x7, partner max 10 µM) | 0.963 | 0.974 | 0.979 | 0.891 | 1 | 0.988 | 0.52 | 0.724 | 0.474 | 0.969 | 1 | 0.972 | 0.524 | 0.834 | 0.861 | 0.381 | 0.765 | 0.328 | 0.769 | 0.854 |
| CCN(CCO)CCCOc1ccc2c(Nc3cc(CC(=O)Nc4cccc(F)c4)[nH]n3)ncnc2c1 [AZD2811] + O=C(c1cc(Cc2n[nH]c(=O)c3ccccc23)ccc1F)N1CCN(C(=O)C2CC2)CC1 [Olaparib] (first compound max 1 µM, 7x7, partner max 10 µM) | 0.947 | 0.276 | 0.539 | 0.564 | 0.4 | 0.822 | 0.253 | 0.215 | 0.12 | 0.168 | 1 | 0.315 | 0.0709 | 0.279 | 0.416 | 0.0979 | 0.171 | 0.273 | 0.459 | 0.161 |
| Cn1cnc2c(F)c(Nc3ccc(Br)cc3Cl)c(C(=O)NOCCO)cc21 [Selumetinib] + C[C@@H]1COCCN1C2=NC(=NC(=C2)C3(CC3)[S@](=N)(=O)C)C4=C5C=CNC5=NC=C4 [AZD6738] (first compound max 10 µM, 7x7, partner max 10 µM) | 0.899 | 0.728 | 0.856 | 0.703 | 0.935 | 0.954 | 0.759 | 0.667 | 0.415 | 0.707 | 1 | 0.947 | 0.482 | 0.717 | 0.42 | 0.287 | 0.746 | 0.192 | 0.646 | 0.789 |
| CC1(C)CCC(CN2CCN(c3ccc(C(=O)NS(=O)(=O)c4ccc(NCC5CCOCC5)c([N+](=O)[O-])c4)c(Oc4cnc5[nH]ccc5c4)c3)CC2)=C(c2ccc(Cl)cc2)C1 [Venetoclax] + C[C@@H](Nc1cc(F)cc(F)c1)c1cc(C(=O)N(C)C)cc2c(=O)cc(N3CCOCC3)oc12 [AZD8186] (first compound max 1 µM, 7x7, partner max 3 µM) | 0.0877 | 0.376 | 0.919 | 0.169 | 1 | 0.256 | 0.296 | 0.255 | 0.142 | 0.0327 | 0.986 | 0.527 | 0.14 | 0.471 | 0.212 | 0.117 | 0.243 | 0.174 | 0.22 | 0.166 |
| NC1(C(=O)N[C@@H](CCO)c2ccc(Cl)cc2)CCN(c2ncnc3[nH]ccc23)CC1 [Capivasertib] + CC(=O)c1c(C)c2cnc(Nc3ccc(N4CCNCC4)cn3)nc2n(C2CCCC2)c1=O [Palbociclib] (first compound max 10 µM, 7x7, partner max 10 µM) | 0.391 | 0.141 | 1 | 0.556 | 0.781 | 0.384 | 0.556 | 0.519 | 0.311 | 0.831 | 0.838 | 0.683 | 0.452 | 0.254 | 0.542 | 0.389 | 0.413 | 0.17 | 0.618 | 0.567 |
